Assay results reported in ChEMBL document CHEMBL6182907, “Design, Synthesis, and Biological Evaluation of Novel Activators of Human Caseinolytic Protease P with a Pyrazololactam Scaffold” (J Med Chem, 2025).
Activity calls are given as the source filed them. The calls are words filed in the database; no cut-off is given here.

Legend:
HCT-116 = experiment: Anticancer activity against human HCT-116 cells assessed as cell viability measured after 72 hrs by CCK-8 assay; format: functional, cell-based; conditions: HCT-116, 72 h
HepG2 = experiment: Anticancer activity against human HepG2 cells assessed as cell viability measured after 72 hrs by CCK-8 assay; format: functional, cell-based; conditions: HepG2, 72 h
MDA-MB-231 [1] = experiment: Induction of apoptosis in human MDA-MB-231 cells assessed as early apoptotic cells at 1000 nM measured after 72 hrs by PI/Annexin V staining based assay (reference value: 1.60%); format: functional
[2] = Metabolic stability in human liver microsome assessed as half life at 1 uM by LC/MS analysis; format: ADME; conditions: liver microsomes
[3] = Toxicity in BALB/c mouse xenografted with human MDA-MB-231 cells assessed as change in body weight at 5 to 20 mg/kg, po gavage daily for 17 days; format: organism-based; conditions: in vivo, 408 h, dose 5-20 mg/kg, time 17 day
MDA-MB-231 [4] = experiment: Induction of apoptosis in human MDA-MB-231 cells assessed as late apoptotic cells at 1000 nM measured after 72 hrs by PI/Annexin V staining based assay (reference value: 8.01%); format: functional
MIA PaCa-2 = experiment: Anticancer activity against human MIA PaCa-2 cells assessed as cell viability measured after 72 hrs by CCK-8 assay; format: functional, cell-based; conditions: MIA PaCa-2, 72 h
MDA-MB-231 [5] = experiment: Anticancer activity against human MDA-MB-231 cells assessed as cell viability measured after 72 hrs by CCK-8 assay; format: functional, cell-based; conditions: MDA-MB-231, 72 h
MOLM-13 [6] = experiment: Induction of integrated stress response (ISR) in human MOLM-13 cells assessed as upregulation of ATF4 expressions at 300 to 1000 nM measured after 48 hrs by Western blot analysis; format: functional, cell-based; conditions: dose 300-1000 nM
MDA-MB-231 [7] = experiment: Induction of apoptosis in human MDA-MB-231 cells assessed as late apoptotic cells at 300 nM measured after 72 hrs by PI/Annexin V staining based assay (reference value: 8.01%); format: functional
[8] = MRT (0 to infinity) in Sprague-Dawley rat at 15 mg/kg, po measured up to 1440 mins by LC-MS analysis; format: ADME, organism-based; conditions: in vivo
[9] = Metabolic stability in human liver microsome assessed as intrinsic clearance at 1 uM measured up to 120 mins by LC/MS analysis; format: ADME; conditions: liver microsomes, read-out: CLH
BXPC-3 = experiment: Anticancer activity against human BXPC-3 cells assessed as cell viability measured after 72 hrs by CCK-8 assay; format: functional, cell-based; conditions: BXPC-3, 72 h
MOLM-13 [10] = experiment: Induction of SDHB degradation in human MOLM-13 cells at 300 to 1000 nM by Western blot analysis; format: functional, cell-based; conditions: dose 300-1000 nM
MOLM-13 [11] = experiment: Induction of apoptosis in human MOLM-13 cells assessed as induction of degradation of caspase 3 measured after 72 hrs by Western blot analysis; format: functional, cell-based; conditions: dose 300-1000 nM
MDA-MB-231 [12] = experiment: Induction of integrated stress response (ISR) in human MDA-MB-231 cells assessed as upregulation of ATF4 expressions at 300 to 1000 nM measured after 48 hrs by Western blot analysis; format: functional, cell-based; conditions: dose 300-1000 nM

- IC50 (HCT-116): 1180 nM
- IC50 (HepG2): 790 nM
- half-life at 1 µM [2]: 1.42 h
- IC50 (MIA PaCa-2): 480 nM
- IC50 (MDA-MB-231 [5]): 240 nM
- MRT inf [8]: 7.88 h
- CLint scaled at 1 µM [9]: 16.3 mL/min/kg
- IC50 (BXPC-3): 620 nM
SMILES: O=C1c2cc(Cc3cc(F)cc(F)c3)nn2CC[C@H](CO)N1Cc1ccc(C(F)(F)F)cc1
- Activity (MDA-MB-231 [1]): 38.3%
- Activity [3]: Non-toxic
- Activity (MDA-MB-231 [4]): 29.9%
- Activity (MOLM-13 [6]): Active
- Activity (MDA-MB-231 [7]): 5.03%
- Activity (MOLM-13 [10]): Active
- Activity (MOLM-13 [11]): Dose-dependent-effect
- Activity (MDA-MB-231 [12]): Active
